Assay results published in patent US7572606B1 (Nereus Pharmaceuticals, Inc., priority 2005, dated 2009).
Several values for one entry are separate records, joined by “and”; a condition that tells them apart may be missing. Equal entries are not always repeated. Where two headings read alike, the source gives them in different places.

Assays:
U266 = test: Cell growth inhibition, resazurin, 48 h; assay type: cell-based, human; conditions: U266, 48 h drug exposure, read-out: EC50
MES-SA/Dx5 = test: Cell growth inhibition, resazurin, 48 h; conditions: MES-SA/Dx5, 48 h drug exposure
Procedure: (§1) Concentrations ranging from 6.32 μM to 2 nM were tested for II-2 and II-4.

RPMI 8226 = test: Cell growth inhibition, resazurin, 48 h; conditions: RPMI 8226, 48 h drug exposure
Procedure: (§2) RPMI 8226 (CCL-155), HT-29 (HTB-38), and B16-F10 (CRL-6475) cells were purchased from ATCC. RPMI 8226 cells were maintained in RPMI 1640 media supplemented with 10% (v/v) FBS, 2 mM L-glutamine, 1 mM sodium pyruvate and Penicillin/Streptomycin at 100 IU/ml and 100 μg/ml, respectively. HT-29 cells were maintained in McCoys 5A supplemented with 10% (v/v) FBS, 2 mM L-glutamine, 1 mM sodium pyruvate, 1% (v/v) non-essential amino acids, 10 mM HEPES and Penicillin/Streptomycin at 100 IU/ml and 100 μg/ml, respectively. B16-F10 cells were maintained in DMEM supplemented with 10% (v/v) FBS, 2 mM L-glutamine, 10 mM HEPES and Penicillin/Streptomycin at 100 IU/ml and 100 μg/ml, respectively.
(§3) RPMI 8226 cells were seeded at 2×10^4 cells/well in 90 μl RPMI media containing 10% (v/v) FBS or 1% (v/v) FBS into 96 well black-walled, clear-bottom tissue culture plates. […] Formulae II-16, II-17 and Formula II-18 were serially diluted in media containing 1% or 10% FBS and added in triplicate to the test wells. […] The final concentration of Formula II-18 ranged from 2 μM to 630 pM.

[1] = biological target: T1, trypsin-like activity of rabbit muscle 20S proteasome (Oryctolagus cuniculus, UniProt G1SWK8); test: In vitro inhibition of 20S proteasome, Boc-LRR-AMC; assay type: biochemical
T1 construct: EC50 Trypsin-like; other: purified rabbit 20S proteasome, Boc-LRR-AMC; other: under the conditions tested
T1 sequence (G1SWK8 1-271): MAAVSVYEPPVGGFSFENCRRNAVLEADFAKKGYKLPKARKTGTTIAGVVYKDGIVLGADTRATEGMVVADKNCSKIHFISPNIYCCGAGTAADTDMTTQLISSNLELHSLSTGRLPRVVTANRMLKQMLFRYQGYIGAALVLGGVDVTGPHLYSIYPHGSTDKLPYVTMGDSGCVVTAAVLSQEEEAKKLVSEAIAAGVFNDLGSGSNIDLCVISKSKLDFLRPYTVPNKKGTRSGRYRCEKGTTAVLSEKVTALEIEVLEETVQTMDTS

B16-F10 = test: Cell growth inhibition, resazurin, 48 h; assay type: cell-based, mouse; conditions: Mus musculus, B16-F10, 48 h, B16-F10, 48 h drug exposure; read-out: EC50
Procedure: as §2, §3

[2] = biological target: caspase-like (PGPH) activity of rabbit muscle 20S proteasome (Oryctolagus cuniculus, UniProt A0A5F9DQW2); test: In vitro inhibition of 20S proteasome, Z-LLE-AMC
[3] = tested on: NF-κB-mediated luciferase activity in HEK293 NF-κB/Luc cells; test: NF-κB-mediated luciferase reporter gene assay; assay type: cell-based, human; conditions: for luciferase activity upon TNF-α stimulation: pretreatment of NF-κB/Luc 293 cells; for EC50: 6 h TNF-α stimulation, read-out: EC50
Procedure: The HEK293 NF-κB/luciferase reporter cell line is a derivative of the human embryonic kidney cell line (ATCC; CRL-1573) and carries a luciferase reporter gene under the regulation of 5×NF-κB binding sites. […] When performing the luciferase assay, the DMEM basal medium was replaced with phenol-red free DMEM basal medium and the G418 was omitted.
For NF-κB-mediated luciferase assays, HEK293 NF-κB/luciferase cells were seeded at 1.5×10^4 cells/well in 90 μl phenol-red free DMEM complete medium into Corning 3917 white opaque-bottom tissue culture plates. For Formulae II-2, II-4, II-5A and II-18, a 400 μM starting dilution was made in 100% DMSO and this dilution was used to generate an 8-point half log dilution series. […] For formula II-20, a 2.5 mM or 8 mM starting dilution was made in 100% DMSO and the final test concentrations ranged from 6.3 μM to 2.0 nM or 20 μM to 6.3 nM respectively. The plates were returned to the incubator for 1 hour. After 1 hr pretreatment, 10 μl of a 50 ng/ml TNF-α solution, prepared in the phenol-red free DMEM medium was added, and the plates were incubated for an additional 6 hours.
At the end of the TNF-α stimulation, 100 μl of Steady Lite HTS luciferase reagent (Packard Bioscience) was added to each well and the plates were left undisturbed for 10 min at room temperature before measuring the luciferase activity. The relative luciferase units (RLU) were measured by using a Fusion microplate fluorometer (Packard Bioscience).
NF-κB inducible luciferase activity was measured at 6 hours.

HT-29 = test: Cell growth inhibition, resazurin, 48 h; assay type: cell-based, human; conditions: Homo sapiens; HT-29, 48 h drug exposure; read-out: EC50
Procedure: as §2, §3

HL-60 = test: Cell growth inhibition, resazurin, 48 h; conditions: Homo sapiens, HL-60, 48 h, HL-60, 48 h drug exposure
Procedure: (§4) The DNA binding agent Mitoxantrone was included as a control, as HL-60/MX2 cells are reported to be resistant to this chemotherapeutic agent (Harker W. G. et al. 1989).
as §1

OVCAR-3 = test: Cell growth inhibition, resazurin, 48 h; assay type: cell-based, human; conditions: Homo sapiens; OVCAR-3, 48 h drug exposure; read-out: EC50
HL-60/MX2 = test: Cell growth inhibition, resazurin, 48 h; conditions: Homo sapiens, HL60/MX2, 48 h, HL-60/MX2, 48 h drug exposure
Procedure: as §4, §1

Sequence of caspase-like (PGPH) activity of rabbit muscle 20S proteasome (A0A5F9DQW2 1-212): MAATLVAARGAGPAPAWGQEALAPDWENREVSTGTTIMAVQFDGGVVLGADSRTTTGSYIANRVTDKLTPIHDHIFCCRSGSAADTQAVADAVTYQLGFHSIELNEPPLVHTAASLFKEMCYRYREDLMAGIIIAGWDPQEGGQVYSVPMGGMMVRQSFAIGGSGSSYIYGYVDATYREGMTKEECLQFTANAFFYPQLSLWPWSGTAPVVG

Q: How did the EC50 (U266) turn out when C[C@@]12OC(=O)[C@]1([C@@H](O)C1CCCCC1)NC(=O)[C@@H]2CCCl [Formula II-2] was run?
A: 39 nM

Q: And the EC50 (MES-SA/Dx5; Homo sapiens, MES-SA/Dx5, 48 h)?
A: 220 nM

Q: And the EC50 (MES-SA/Dx5)?
A: 138 nM

Q: And the EC50 (RPMI 8226; Homo sapiens, RPMI-8226, 48 h)?
A: 49 nM

Q: What about the “inhibition of the trypsin-like activity of the 20S proteasome” value ([1]; under the conditions tested) of the same molecule?
A: able to inhibit the trypsin-like activity

Q: And the EC50 (B16-F10)?
A: 194 nM

Q: What about the EC50 ([2]; read-out: EC50 Caspase-like, purified rabbit 20S proteasome, Z-LLE-AMC) of the same molecule?
A: 1300 nM and 1700 nM

Q: What about the “luciferase activity upon TNF-α stimulation” value [3] of the same molecule?
A: dose-dependent decrease of luciferase activity

Q: What about the EC50 (HT-29) of the same molecule?
A: 129 ± 21 nM

Q: What about the EC50 (HL-60) of the same molecule?
A: 237 nM

Q: What does the source list for CC[C@H]1C(=O)N[C@@]2([C@@H](O)C3CCCCC3)C(=O)O[C@@]12C [Formula II-3]?
A: EC50 (U266; Homo sapiens, U-266, 48 h): > 20000 nM; EC50 (MES-SA/Dx5; Homo sapiens, MES-SA/Dx5, 48 h): > 20000 nM; EC50 (RPMI 8226; Homo sapiens, RPMI-8226, 48 h): > 20000 nM; inhibition of the trypsin-like activity of the 20S proteasome [1]: able to inhibit the trypsin-like activity; EC50 ([2]; read-out: EC50 Caspase-like): > 20000 nM; EC50 (HT-29): > 20000 nM

Q: Which EC50 (U266; Homo sapiens, U-266, 48 h) does the source give for C[C@@]12OC(=O)[C@]1([C@@H](O)C1CCCCC1)NC(=O)[C@@H]2CCBr [Formula II-4] here?
A: 34 nM

Q: What about the EC50 (U266) of the same molecule?
A: 39 nM

Q: And the EC50 (MES-SA/Dx5; Homo sapiens, MES-SA/Dx5, 48 h)?
A: 178 nM

Q: What about the EC50 (MES-SA/Dx5) of the same molecule?
A: 93 nM

Q: And the EC50 (RPMI 8226; Homo sapiens, RPMI-8226, 48 h)?
A: 57 nM

Q: What about the EC50 (RPMI 8226) of the same molecule?
A: 51 nM

Q: And the “inhibition of the trypsin-like activity of the 20S proteasome” value [1]?
A: able to inhibit the trypsin-like activity

Q: And the EC50 (OVCAR-3)?
A: > 6.32 µM

Q: What about the EC50 (B16-F10) of the same molecule?
A: 163 nM

Q: And the EC50 ([2]; read-out: EC50 Caspase-like (PGPH))?
A: 850 nM and 637 nM

Q: And the EC50 ([3]; 1 h pretreatment)?
A: 88 nM

Q: And the EC50 ([3]; Homo sapiens, HEK293, 1 h pretreatment)?
A: 67 nM

Q: What about the “luciferase activity upon TNF-α stimulation” value [3] of the same molecule?
A: dose-dependent decrease of luciferase activity

Q: What about the EC50 (HL-60/MX2) of the same molecule?
A: 97 nM

Q: What about the EC50 (HL-60) of the same molecule?
A: 143 nM
